The nature of data set [1]: Toxicity in female BALB/cA nude mouse assessed as fibrotic changes in lung at 25 mg/kg, iv administered once a week for 35 days by H and E staining based analysis. The conditions noted are these: in vivo, 840 h, time 35 day. Format: organism-based.
The nature of data set [2]: Toxicity in female BALB/cA nude mouse assessed as appearance of inflammatory lesions in heart at 25 mg/kg, iv administered once a week for 35 days by H and E staining based analysis. The class given is organism-based. The conditions noted are these: in vivo, 840 h, time 35 day.
Data set [3] is described as follows: Toxicity in female BALB/cA nude mouse assessed as appearance of inflammatory lesions in lung at 25 mg/kg, iv administered once a week for 35 days by H and E staining based analysis. Format: organism-based. The conditions noted are these: in vivo, 840 h, time 35 day.
Data set [4] is described as follows: Toxicity in female BALB/cA nude mouse assessed as mortality at 25 mg/kg, iv administered twice per week measured after 107 days. Format: organism-based. The conditions noted are these: in vivo, 2568 h, time 107 day.
Data set [5] is described as follows: Toxicity in female BALB/cA nude mouse assessed as appearance of inflammatory lesions in kidney at 25 mg/kg, iv administered once a week for 35 days by H and E staining based analysis. The class given is organism-based. The conditions noted are these: in vivo, 840 h, time 35 day.
Data set [6] in a line: Toxicity in female BALB/cA nude mouse assessed as fibrotic changes in liver at 25 mg/kg, iv administered once a week for 35 days by H and E staining based analysis. The conditions noted are these: in vivo, 840 h, time 35 day. Format: organism-based.
The nature of data set [7]: Volume of distribution in female BALB/c mouse at 25 mg/kg measured up to 120 hrs by HPLC analysis. The conditions noted are these: in vivo. The class given is ADME, organism-based.
Data set [8] has as its system HCT-116. Nature of the data set: Antitumor activity against human HCT-116 cells xenografted in female BALB/cA nude mouse model assessed as increase in tumor cell apoptosis by measuring increase in red fluorescence at 25 mg/kg, iv by TUNEL analysis. Format: functional, organism-based. (Xenograft models place foreign cells or tissue in a host animal.)
Data set [9] can be described thus: Toxicity in female BALB/cA nude mouse assessed as fibrotic changes in heart at 25 mg/kg, iv administered once a week for 35 days by H and E staining based analysis. The class given is organism-based. The conditions noted are these: in vivo, 840 h, time 35 day.
A short description of data set [10]: Half life in female BALB/c mouse at 25 mg/kg measured up to 120 hrs by HPLC analysis. The conditions noted are these: in vivo. Format: ADME, organism-based.
A short description of data set [11]: Toxicity in female BALB/cA nude mouse assessed as inflammatory response in liver at 25 mg/kg, iv measured after 24 hrs by H and E staining based analysis. The class given is organism-based. The conditions noted are these: in vivo.
Data set [12] can be described thus: Toxicity in female BALB/cA nude mouse assessed as appearance of inflammatory lesions in liver at 25 mg/kg, iv administered once a week for 35 days by H and E staining based analysis. The class given is organism-based. The conditions noted are these: in vivo, 840 h, time 35 day.
Data set [13] can be described thus: Prodrug release in female BALB/c nude mouse tumor assessed as (S)-4,11-diethyl-4,9-dihydroxy-1,12-dihydro-14H-pyrano[3',4':6,7]indolizino[1,2-b]quinoline-3,14(4H)-dione accumulation at 38 mg/kg measured after 6 hrs by HPLC analysis. Format: ADME, organism-based, Neoplasm. The conditions noted are these: in vivo.
The nature of data set [14]: Toxicity in female BALB/cA nude mouse assessed as animal fatality at 38 mg/kg, iv administered once a week for 35 days. The conditions noted are these: in vivo, 840 h, time 35 day. Format: organism-based.
Data set [15] can be described thus: Toxicity in female BALB/cA nude mouse assessed as effect on body weight loss at 38 mg/kg, iv administered twice per week measured for 107 days. Format: organism-based. The conditions noted are these: in vivo, 2568 h, time 107 day.
Data set [16] is described as follows: Half life in female BALB/c mouse at 38 mg/kg measured up to 168 hrs by HPLC analysis. Format: ADME, organism-based. The conditions noted are these: in vivo.
The test system of data set [17] is HCT-116. Description: Antitumor activity against human HCT-116 cells xenografted in female BALB/cA nude mouse model assessed as relative tumor proliferation rate at 38 mg/kg, iv administered twice per week measured after 24 days relative to control. The conditions noted are these: time 24 day. The class given is functional.
Data set [18] in a line: Toxicity in female BALB/cA nude mouse assessed as fibrotic changes in kidney at 38 mg/kg, iv administered once a week for 35 days by H and E staining based analysis. The class given is organism-based. The conditions noted are these: in vivo, 840 h, time 35 day.
Data set [19] can be described thus: Toxicity in female BALB/cA nude mouse assessed as appearance of inflammatory lesions in tumor at 38 mg/kg, iv administered once a week for 35 days by H and E staining based analysis. Format: organism-based. The conditions noted are these: in vivo, 840 h, time 35 day.
A short description of data set [20]: Toxicity in female BALB/cA nude mouse assessed as damage in lung at 38 mg/kg, iv measured after 24 hrs by H and E staining based analysis. The class given is organism-based. The conditions noted are these: in vivo.
A short description of data set [21]: AUC (0 to t) in female BALB/c mouse at 38 mg/kg measured up to 168 hrs by HPLC analysis. The class given is ADME, organism-based. The conditions noted are these: in vivo.
A short description of data set [22]: Toxicity in female BALB/cA nude mouse assessed as fibrotic changes in liver at 38 mg/kg, iv administered once a week for 35 days by H and E staining based analysis. The conditions noted are these: in vivo, 840 h, time 35 day. The class given is organism-based.
In data set [23] the test system is HCT-116. Description: Antitumor activity against human HCT-116 cells xenografted in female BALB/cA nude mouse model assessed as relative tumor proliferation rate at 38 mg/kg, iv administered twice per week measured after 107 days. Format: functional, organism-based. The conditions noted are these: time 107.0 day.
Data set [24] is described as follows: Toxicity in female BALB/cA nude mouse assessed as effect on body weight loss at 38 mg/kg, iv administered twice per week measured after 107 days. Format: organism-based. The conditions noted are these: in vivo, 2568 h, time 107 day.
Data set [25] is described as follows: Toxicity in female BALB/cA nude mouse assessed as appearance of inflammatory lesions in spleen at 38 mg/kg, iv administered once a week for 35 days by H and E staining based analysis. The class given is organism-based. The conditions noted are these: in vivo, 840 h, time 35 day.
For data set [26], the system named is BXPC-3. Nature of the data set: Antitumor activity against human BXPC-3 cells xenografted in female BALB/cA nude mouse model assessed as suppression of tumor growth by measuring relative tumor proliferation rate at 38 mg/kg, iv measured after 17 days relative to control. Format: functional. The conditions noted are these: time 17 day.
The nature of data set [27]: Volume of distribution in female BALB/c mouse at 38 mg/kg measured up to 168 hrs by HPLC analysis. The conditions noted are these: in vivo. The class given is ADME, organism-based.
The nature of data set [28]: Toxicity in female BALB/cA nude mouse assessed as appearance of fibrosis in lung at 38 mg/kg, iv measured after 24 hrs by H and E staining based analysis. The class given is organism-based. The conditions noted are these: in vivo.
Data set [29] is described as follows: Clearance in female BALB/c mouse at 38 mg/kg measured up to 168 hrs by HPLC analysis. Format: ADME, organism-based. The conditions noted are these: in vivo.
Data set [30] can be described thus: Toxicity in female BALB/cA nude mouse assessed as mortality at 38 mg/kg, iv administered twice per week measured after 107 days. The class given is organism-based. The conditions noted are these: in vivo, 2568 h, time 107 day.
Data set [31] can be described thus: Toxicity in female BALB/cA nude mouse assessed as fibrotic changes in lung at 38 mg/kg, iv administered once a week for 35 days by H and E staining based analysis. The conditions noted are these: in vivo, 840 h, time 35 day. The class given is organism-based.
Data set [32] is described as follows: Toxicity in female BALB/cA nude mouse assessed as fibrotic changes in spleen at 38 mg/kg, iv administered once a week for 35 days by H and E staining based analysis. Format: organism-based. The conditions noted are these: in vivo, 840 h, time 35 day.
A short description of data set [33]: Toxicity in female BALB/cA nude mouse assessed as appearance of inflammatory lesions in kidney at 38 mg/kg, iv administered once a week for 35 days by H and E staining based analysis. The conditions noted are these: in vivo, 840 h, time 35 day. Format: organism-based.
Data set [34] in a line: Toxicity in female BALB/cA nude mouse assessed as fibrotic changes in tumor at 38 mg/kg, iv administered once a week for 35 days by H and E staining based analysis. The conditions noted are these: in vivo, 840 h, time 35 day. The class given is organism-based.
Data set [35] is described as follows: Toxicity in female BALB/cA nude mouse assessed as fibrotic changes in heart at 38 mg/kg, iv administered once a week for 35 days by H and E staining based analysis. The class given is organism-based. The conditions noted are these: in vivo, 840 h, time 35 day.
Data set [36] has as its target Albumin (Homo sapiens, UniProt P02768). Description: Binding affinity to human serum albumin assessed as binding rate measured after 24 mins by HPLC analysis relative to control. Format: ADME. The conditions noted are these: isolated protein, 0.4 h.

Active and inactive are the calls of the source. No cut-off for these calls is given here.

Chain of Albumin (P02768 whole entry): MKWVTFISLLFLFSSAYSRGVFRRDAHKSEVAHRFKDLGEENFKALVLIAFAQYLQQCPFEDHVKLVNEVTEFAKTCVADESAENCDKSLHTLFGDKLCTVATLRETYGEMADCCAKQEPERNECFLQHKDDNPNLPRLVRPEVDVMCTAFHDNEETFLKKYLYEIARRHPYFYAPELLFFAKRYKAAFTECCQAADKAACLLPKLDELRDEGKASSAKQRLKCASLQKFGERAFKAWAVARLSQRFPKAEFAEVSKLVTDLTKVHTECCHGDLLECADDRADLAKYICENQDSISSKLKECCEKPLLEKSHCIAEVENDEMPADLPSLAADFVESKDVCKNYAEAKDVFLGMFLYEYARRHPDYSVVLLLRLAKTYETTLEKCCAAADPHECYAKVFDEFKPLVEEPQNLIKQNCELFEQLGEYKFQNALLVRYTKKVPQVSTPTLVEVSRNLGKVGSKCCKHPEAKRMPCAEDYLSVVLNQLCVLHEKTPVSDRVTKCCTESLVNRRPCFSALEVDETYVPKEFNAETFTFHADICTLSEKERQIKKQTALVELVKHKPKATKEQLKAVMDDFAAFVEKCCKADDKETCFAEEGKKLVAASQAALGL

One may read the Vd as a proportionality between amount in the body and measured concentration, not a real space. A high value points to extensive tissue distribution. As for `CCc1c2c(nc3ccc(OCc4ccc(O[C@@H]5O[C@H](C(=O)O)[C@@H](O)[C@H](O)[C@H]5O)c(NC(=O)CCNC(=O)CCCCCN5C(=O)C=CC5=O)c4)cc13)-c1cc3c(c(=O)n1C2)COC(=O)[C@]3(O)CC`, the Activity entry in data set [1], in [2], in data set [3], in data set [4], in [5] and in data set [6] was “Non-toxic” in each case. Also, the Activity entry in data set [9] is recorded as “Non-toxic”; in data set [11] it was “Toxic”; in data set [12], “Non-toxic”. The Vd in data set [7] worked out at 0.61 L/kg. Also, the outcome in data set [8] was Active. Moreover, the t1/2 in [10] came to 52.31 h.

The half-life is the time in which the quantity being followed falls by half. A word on the AUC(0-t): it is exposure summed from dosing to a finite time, without extrapolation to infinity. Low values mean less exposure, high ones more exposure. For orientation: clearance means a measure of how efficiently the substance is removed, as volume per time. A high value points to a high capacity for elimination. In the case of `CCc1c2c(nc3ccc(OCc4ccc(O[C@@H]5O[C@H](C(=O)O)[C@@H](O)[C@H](O)[C@H]5O)c(NC(=O)CCNC(=O)COCCOCCNC(=O)COCCOCCNC(=O)CC[C@H](NC(=O)CCCCCCCCCCCCCCCCC(=O)O)C(=O)O)c4)cc13)-c1cc3c(c(=O)n1C2)COC(=O)[C@]3(O)CC`, the Drug metabolism in data set [13] stood at 0.376 % ID/g. The Activity result in [14] is on record as “Non-toxic”; in data set [15], “Non-toxic”; in data set [17], 10.59%; in [18], “Non-toxic”; in [19] it was “Non-toxic”; in data set [20] it was “Toxic”. The Activity result is listed as “Non-toxic” in data set [22]; “Toxic” in [24]; “Non-toxic” in data set [25]; 34.39% in data set [26]; “Toxic” in [28]; “Non-toxic” in data set [30]. Moreover, the Activity result is reported as “Non-toxic” in data set [31]; “Non-toxic” in data set [32]; “Non-toxic” in data set [33]; “Non-toxic” in data set [34]; “Non-toxic” in [35]; 94% in [36]. The half-life in data set [16] is 3.65 h. The AUC(0-t) at 168 h in [21] is 837 µg·h/mL. The result in data set [23] was inactive. For the same compound, the Vd in data set [27] was 0.24 L/kg. Besides, the clearance in data set [29] was 0.753 mL/min/kg.

Values taken from ChEMBL document CHEMBL6134851, “Comparative Study on Covalent and Noncovalent Endogenous Albumin-Binding β-Glucuronidase-Activated SN38 Prodrugs for Antitumor Efficacy” (J Med Chem, 2025).
